Reference: ChEMBL document CHEMBL6153076, “Discovery of novel JQ1 derivatives as dual ferroptosis and apoptosis inducers for the treatment of triple-negative breast cancer” (Eur J Med Chem, 2025)
The source made the active and inactive calls. No cut-off for these calls is given here. Residues, ends and D or L forms follow the SMILES beside them. *: point of attachment. Cbz = O=C(OCc1ccccc1)*; CH2F = FC*

Assays:
MDA-MB-231 [1] = test: cells; settings: Homo sapiens, MDA-MB-231, 72 h
Description: Antiproliferative activity against human MDA-MB-231 cells assessed as inhibition of cell proliferation incubated for 72 hrs by MTT assay

BT-549 [2] = test: cells; settings: Homo sapiens, BT-549, 72 h
Description: Antiproliferative activity against human BT-549 cells assessed as inhibition of cell proliferation incubated for 72 hrs by MTT assay

MDA-MB-231 [3] = test: Induction of ferroptosis in human MDA-MB-231 cells assessed as cell death in presence of ferrostatin-1; type: functional, cell-based
MDA-MB-231 [4] = test: Induction of apoptosis in human MDA-MB-231 cells; type: functional, cell-based
BT-549 [5] = test: Induction of ferroptosis in human BT-549 cells assessed as cell death in presence of ferrostatin-1; type: functional, cell-based
MDA-MB-231 [6] = test: Antiproliferative activity against human MDA-MB-231 cells assessed as reduction in cell proliferation incubated for 72 hrs by MTT assay; type: functional, cell-based
[7] = molecular target: T1, Phospholipid hydroperoxide glutathione peroxidase GPX4 (Homo sapiens) (UniProt P36969); test: Inhibition of GPX4 (unknown origin) upto 3 uM incubated for 60 mins in presence of NADPH by absorbance based analysis
T1 sequence (whole entry): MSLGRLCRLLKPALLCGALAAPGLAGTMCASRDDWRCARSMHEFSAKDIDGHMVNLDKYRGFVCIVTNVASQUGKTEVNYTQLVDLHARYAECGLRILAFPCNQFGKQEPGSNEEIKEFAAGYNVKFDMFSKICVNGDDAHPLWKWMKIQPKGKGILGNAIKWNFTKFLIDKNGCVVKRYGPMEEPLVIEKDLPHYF

[8] = Selectivity index, ratio of IC50 for antiproliferative activity against human MCF-10A cells assessed as inhibition of cell proliferation to IC50 for antiproliferative activity against human MDA-MB-231 cells assessed as inhibition of cell proliferation; type: toxicity, cell-based; settings: MCF-10A cells and MDA-MB-231 cells, read-out: Ratio IC50
[9] = Cytotoxicity against human MCF-10A cells assessed as inhibition of cell proliferation incubated for 72 hrs by MTT assay; type: toxicity, cell-based
MDA-MB-231 [10] = test: Induction of ferroptosis in human MDA-MB-231 cells assessed as cell death in presence of Z-VAD-FMK; type: functional, cell-based
BT-549 [11] = test: Induction of ferroptosis in human BT-549 cells assessed as cell death in presence of Z-VAD-FMK; type: functional, cell-based
MDA-MB-231 [12] = test: Induction of cell cycle arrest in human MDA-MB-231 cells assessed as accumulation of cells at S phase at 5 uM incubated for 48 hrs by propidium iodide staining flow cytometric analysis (reference value: 26.75%); type: functional
MDA-MB-231 [13] = test: Downregulation of NRF2 expression in human MDA-MB-231 cells at 5 uM; type: functional, cell-based
MDA-MB-231 [14] = test: Downregulation of HO-1 expression in human MDA-MB-231 cells at 5 uM; type: functional, cell-based
MDA-MB-231 [15] = test: Induction of apoptosis in human MDA-MB-231 cells assessed as late apoptotic cells at 5 uM incubated for 48 hrs by Annexin V/PI staining based flow cytometry analysis (reference value: 0.14%); type: functional
MDA-MB-231 [16] = test: Induction of cell cycle arrest in human MDA-MB-231 cells assessed as accumulation of cells at G0/G1 phase at 5 uM incubated for 48 hrs by propidium iodide staining flow cytometric analysis (reference value: 64.56 %); type: functional
MDA-MB-231 [17] = test: Induction of apoptosis in human MDA-MB-231 cells assessed as early apoptotic cells at 5 uM incubated for 48 hrs by Annexin V/PI staining based flow cytometry analysis (reference value: 0.80%); type: functional
MDA-MB-231 [18] = test: Induction of cell cycle arrest in human MDA-MB-231 cells assessed as accumulation of cells at G2/M phase at 5 uM incubated for 48 hrs by propidium iodide staining flow cytometric analysis (reference value: 8.69%); type: functional
MDA-MB-231 [19] = test: Induction of apoptosis in human MDA-MB-231 cells assessed as necrotic cells at 5 uM incubated for 48 hrs by Annexin V/PI staining based flow cytometry analysis (reference value: 0.03%); type: functional
MDA-MB-231 [20] = test: Induction of apoptosis in human MDA-MB-231 cells assessed as viable cells at 5 uM incubated for 48 hrs by Annexin V/PI staining based flow cytometry analysis (reference value: 97.85%); type: functional; settings: read-out: Activity

SMILES	IC50 (MDA-MB-231 [1])	IC50 (BT-549 [2])	other results
Cc1sc2c(c1C)C(c1ccc(Cl)cc1)=N[C@@H](CC(=O)NCc1ccc(NC(=O)CCl)cc1)c1nnc(C)n1-2	1.5 µM	1 µM	
CC(C)[C@H](NC(=O)OCc1ccccc1)C(=O)N[C@@H](C)C(=O)N[C@@H](CC(=O)O)C(=O)CF (Cbz-Val-Ala-Asp-CH2F)			Activity (MDA-MB-231 [3]): Active; Activity (MDA-MB-231 [4]): inactive; Activity (BT-549 [5]): Active
Cc1sc2c(c1C)C(c1ccc(Cl)cc1)=N[C@@H](CC(=O)Nc1ccc(CCNC(=O)CCl)cc1)c1nnc(C)n1-2	13.7 µM	17.1 µM	
Cc1sc2c(c1C)C(c1ccc(Cl)cc1)=N[C@@H](CC(=O)NCCOCCOCCNC(=O)CCl)c1nnc(C)n1-2	3.03 µM	1.72 µM	
Cc1sc2c(c1C)C(c1ccc(Cl)cc1)=N[C@@H](CC(=O)NCCC1CCN(C(=O)CCl)CC1)c1nnc(C)n1-2	3.49 µM	3.19 µM	
CC(=O)N1CCC(NC(=O)C[C@@H]2N=C(c3ccc(Cl)cc3)c3c(sc(C)c3C)-n3c(C)nnc32)CC1			Activity (MDA-MB-231 [6]): Active; inhibition [7]: inactive
Cc1sc2c(c1C)C(c1ccc(Cl)cc1)=N[C@@H](CC(=O)N1CCN(C(=O)CCl)CC1)c1nnc(C)n1-2	0.74 µM	0.72 µM	selectivity ratio [8]: 1.55; IC50 at 72 h [9]: 1.15 µM
Cc1sc2c(c1C)C(c1ccc(Cl)cc1)=N[C@@H](CC(=O)NCCOCCNC(=O)CCl)c1nnc(C)n1-2	3.88 µM	3.4 µM	
Cc1sc2c(c1C)C(c1ccc(Cl)cc1)=N[C@@H](CC(=O)NCCNC(=O)CCl)c1nnc(C)n1-2	3.15 µM	2.4 µM	
Cc1sc2c(c1C)C(c1ccc(Cl)cc1)=N[C@@H](CC(=O)Nc1ccc(NC(=O)CCl)cc1)c1nnc(C)n1-2	1.4 µM	0.97 µM	
CCOC(=O)c1ccc(NC2CCCCC2)c(N)c1			Activity (MDA-MB-231 [10]): Active; Activity (BT-549 [11]): Active
Cc1sc2c(c1C)C(c1ccc(Cl)cc1)=N[C@@H](CC(=O)NCCCCNC(=O)CCl)c1nnc(C)n1-2	4.64 µM	5.28 µM	
Cc1sc2c(c1C)C(c1ccc(Cl)cc1)=N[C@@H](CC(=O)NCCCCCNC(=O)CCl)c1nnc(C)n1-2	5.57 µM	2.62 µM	
Cc1sc2c(c1C)C(c1ccc(Cl)cc1)=N[C@@H](CC(=O)NCCCCCCNC(=O)CCl)c1nnc(C)n1-2	5.25 µM	5.39 µM	
Cc1sc2c(c1C)C(c1ccc(Cl)cc1)=N[C@@H](CC(=O)OC(C)(C)C)c1nnc(C)n1-2	25.9 µM	20.1 µM	selectivity ratio [8]: 1.79; Activity (MDA-MB-231 [12]): 31.23%; Activity (MDA-MB-231 [13]): Active; Activity (MDA-MB-231 [14]): Active; Activity (MDA-MB-231 [15]): 16.28%; Activity (MDA-MB-231 [16]): 50.48%; Activity (MDA-MB-231 [17]): 16.44%; IC50 at 72 h [9]: 46.4 µM; Activity (MDA-MB-231 [18]): 18.29%; Activity (MDA-MB-231 [19]): 0.66%; viability at 5 µM (MDA-MB-231 [20]): 66.4%
Cc1sc2c(c1C)C(c1ccc(Cl)cc1)=N[C@@H](CC(=O)NCC1CCN(C(=O)CCl)CC1)c1nnc(C)n1-2	1 µM	0.72 µM	selectivity ratio [8]: 1.47; IC50 at 72 h [9]: 1.47 µM
Cc1sc2c(c1C)C(c1ccc(Cl)cc1)=N[C@@H](CC(=O)Nc1ccc(N3CCN(C(=O)CCl)CC3)cc1)c1nnc(C)n1-2	5.31 µM	7.53 µM	
Cc1sc2c(c1C)C(c1ccc(Cl)cc1)=N[C@@H](CC(=O)NCCc1ccc(NC(=O)CCl)cc1)c1nnc(C)n1-2	0.69 µM	0.85 µM	selectivity ratio [8]: 2.26; IC50 at 72 h [9]: 1.54 µM
Cc1sc2c(c1C)C(c1ccc(Cl)cc1)=N[C@@H](CC(=O)NCCCN1CCN(C(=O)CCl)CC1)c1nnc(C)n1-2	2.26 µM	2.46 µM	
Cc1sc2c(c1C)C(c1ccc(Cl)cc1)=N[C@@H](CC(=O)NCc1ccc(CNC(=O)CCl)cc1)c1nnc(C)n1-2	1.37 µM	0.95 µM	
Cc1sc2c(c1C)C(c1ccc(Cl)cc1)=N[C@@H](CC(=O)NCCCNC(=O)CCl)c1nnc(C)n1-2	4.57 µM	2.27 µM	
Cc1sc2c(c1C)C(c1ccc(Cl)cc1)=N[C@@H](CC(=O)Nc1ccc(CNC(=O)CCl)cc1)c1nnc(C)n1-2	1.46 µM	1.07 µM	
Cc1sc2c(c1C)C(c1ccc(Cl)cc1)=N[C@@H](CC(=O)NCCN1CCN(C(=O)CCl)CC1)c1nnc(C)n1-2	5.94 µM	6.99 µM	
